Structures are written as SMILES. Where a SMILES comes first, the peptide text is derived from it. [ ]: non-standard residue; d: D form. The star is where a group is joined. cisHyp = O=C(O)[C@@H]1C[C@H](O)CN1; NMeL = CN[C@@H](CC(C)C)C(=O)O; NMeV = CN[C@H](C(=O)O)C(C)C; Octanoyl = CCCCCCCC(=O)*

The values below come from patent publication US20240002436A1, “RESPIRATORY TREATMENTS” (Hofseth Biocare ASA, priority 2020, published 2024).

Assay [1] concerns Allergic Human Purified Peripheral Blood Eosinophils. The assay is described as follows: Percent eosinophil apoptosis (Annexin V-FITC, flow cytometry) in allergic human purified peripheral blood eosinophils. It is filed as cell-based. Conditions: Homo sapiens, Eosinophil, 10 μg/mL test compound, IL-5 (50 pM), 18 hr incubation, assay SD +/-2.3%; for viability at 10 µg/mL: annexin Vneg, read-out: Percent live EO cells; for Percent apoptotic eosinophils (annexin V-positive) at 10 µg/mL: annexin Vpos, read-out: Percent of apoptotic EO cells. As to the method: Percent Eosinophil Apoptosis in Allergic Human Purified Peripheral Blood Eosinophils
Aliquots were removed after 18 hr incubation, washed twice in PBS, and resuspended in binding buffer. The eosinophil cells were stained using the Annexin V-FITC Apoptosis Detection Kit I, (Sigma Aldrich) and immediately analyzed by flow cytometry. Each sample was acquired for 1 min, and the total number of eosinophils gated on a forward scatter/side scatter plot and the percentage of live cells (annexin Vneg) and apoptotic cells (annexin Vpos) was recorded.

Another assay concerns CD11b on PMNL surface. The assay can be described thus: CD11b change on PMNL surface stimulated by CCL11 (flow cytometry). Type of assay: cell-based. Conditions: Homo sapiens, PMNL, 0.5 h; 1 μg/mL test compound, 30 min pretreatment, 2.5 nm CCL11 30 min at 37° C., CD16 negative cells; assay SD +/-2%; read-out: CD11b change (100% as baseline). As to the method: CD11b Change (100% as Baseline) on PMNL Surface Stimulated by 2.5 nm CCL11
(PMNL) cells were pretreated with 3 μg/mL ApoA-IV (positive control), 1 μg/mL test compounds, and formulation vehicle (negative control) for 30 minutes and incubated with serial dilutions of CCL 11 for 30 minutes at 37° C. Samples were stained with anti-CD16-PE-Cy5 and anti-CD11b-PE (ICRF44) antibodies. Eosinophils were identified as CD16 negative cells. CD11b upregulation was analyzed by flow cytometry and reported above. (Standard deviation in the assay is +/−2%). See results in Table 2 below.

For the compound `CCCCCCCC(=O)N(C)[C@H](C(=O)N[C@H](C(=O)N(C)[C@@H](Cc1c[nH]c2ccccc12)C(=O)N1C[C@@H](O)C[C@H]1C(=O)N1C(=O)C=CC1=O)C(C)OC(C)=O)C(C)CC` (some centres unmarked) [Compound 20a], in assay [1], the viability at 10 µg/mL amounted to 59.3% and the Percent apoptotic eosinophils (annexin V-positive) at 10 µg/mL worked out at 39.4%.

As for `CCCCC(C)CC(C)C(=O)N(C)CC(=O)N[C@H](C(=O)N(C)CC(=O)N1C[C@@H](O)C[C@H]1C(=O)N1C(=O)C=C[C@@H]1C)C(C)OC(C)=O` (some centres unmarked) [Compound 7a], in assay [1], the viability at 10 µg/mL was 59.4% and the Percent apoptotic eosinophils (annexin V-positive) at 10 µg/mL was 39.9%. For the same compound, in the assay with CD11b on PMNL surface, the activity at 1 µg/mL came out at 149%.

On to `CCCCCCCC(=O)N(C)[C@@H](CC(C)C)C(=O)N[C@@H](COC(C)=O)C(=O)N(C)[C@H](C(=O)N1C[C@@H](O)C[C@H]1C(=O)OC)C(C)C` [Compound 17a] (Octanoyl-[NMeL]S(Ac)[NMeV][cisHyp]-OMe), for which, in assay [1], the viability at 10 µg/mL came out at 53.5% and the Percent apoptotic eosinophils (annexin V-positive) at 10 µg/mL stood at 48.2%.

Take `CC/C=C\C/C=C\C/C=C\C/C=C\C/C=C\CCCC(=O)N(C)[C@@H](Cc1ccccc1)C(=O)N[C@H](C(=O)N(C)[C@H](C(=O)N1C[C@@H](O)C[C@H]1C(=O)N1C(=O)C=CC1=O)C(C)C)C(C)OC(C)=O` (some centres unmarked) [Compound 23a]: in assay [1], the viability at 10 µg/mL worked out at 31.4% and the Percent apoptotic eosinophils (annexin V-positive) at 10 µg/mL worked out at 65.6%.

On to `CCCCC(C)CC(C)C(=O)N(C)[C@@H](CC(C)C)C(=O)N[C@H](C(=O)N(C)[C@H](C(=O)N1C[C@@H](O)C[C@H]1C(=O)N1C(=O)C=C[C@@H]1C)C(C)C)C(C)OC(C)=O` (some centres unmarked) [Compound 1b], for which, in assay [1], the viability at 10 µg/mL is 41.8% and the Percent apoptotic eosinophils (annexin V-positive) at 10 µg/mL was found to be 55%. In addition, the activity at 1 µg/mL with CD11b on PMNL surface was determined as 128%.

Consider `CCCCC(C)CC(C)C(=O)N(C)[C@@H](CC(C)C)C(=O)N[C@@H](CS)C(=O)N(C)[C@H](C(=O)N1CCC[C@H]1C(=O)N1C(=O)C=C[C@@H]1C)C(C)C` (some centres unmarked) [Compound 11a], for which, in assay [1], the viability at 10 µg/mL came out at 49.7% and the Percent apoptotic eosinophils (annexin V-positive) at 10 µg/mL came to 44.4%. For the same compound, the activity at 1 µg/mL in the assay with CD11b on PMNL surface was determined as 135%.

Turning to `CCCCC(C)CC(C)C(=O)N(C)[C@@H](CC(C)C)C(=O)N[C@H](C(=O)N(C)[C@H](C(=O)N1CCC[C@H]1C(=O)N1C(=O)C=CC1=O)C(C)C)C(C)OC(C)=O` (some centres unmarked) [Compound 12a], in assay [1], the viability at 10 µg/mL turned out to be 52% and the Percent apoptotic eosinophils (annexin V-positive) at 10 µg/mL came to 42.1%. Besides, the activity at 1 µg/mL in the assay on CD11b on PMNL surface turned out to be 141%.

Consider `CCCCCCCC(=O)N(C)[C@@H](Cc1ccccc1)C(=O)N[C@H](C(=O)N(C)[C@H](C(=O)N1C[C@@H](O)C[C@H]1C(=O)N1C(=O)C=CC1=O)C(C)C)C(C)OC(C)=O` (some centres unmarked) [Compound 18a], for which, in assay [1], the viability at 10 µg/mL stood at 41% and the Percent apoptotic eosinophils (annexin V-positive) at 10 µg/mL is 55.5%.

As to `CCCCC(C)CC(C)C(=O)N(C)[C@@H](CC(C)C)C(=O)N[C@H](C(=O)N(C)[C@H](C(=O)N1C[C@@H](O)C[C@H]1C(=O)N1C(=O)C=C[C@@H]1C)C(C)C)C(C)O` (some centres unmarked) [Compound 8a], in assay [1], the viability at 10 µg/mL turned out to be 31.2% and the Percent apoptotic eosinophils (annexin V-positive) at 10 µg/mL was determined as 60.1%. The activity at 1 µg/mL in the assay with CD11b on PMNL surface is 122%.

In the case of `CC/C=C\C/C=C\C/C=C\C/C=C\C/C=C\CCCC(=O)N(C)[C@@H](CC(C)C)C(=O)N[C@H](C(=O)N(C)[C@H](C(=O)N1C[C@@H](O)C[C@H]1C(=O)N1C(=O)C=C[C@@H]1C)C(C)C)C(C)OC(C)=O` (some centres unmarked) [Compound 27a], in assay [1], the viability at 10 µg/mL is 39.1% and the Percent apoptotic eosinophils (annexin V-positive) at 10 µg/mL came out at 56.5%.

As for `CC(C)C[C@@H](C(=O)N[C@H](C(=O)N(C)[C@H](C(=O)N1C[C@@H](O)C[C@H]1C(=O)N1C(=O)C=C[C@@H]1C)C(C)C)C(C)O)N(C)C(=O)C1CCCCC1` (some centres unmarked) [Compound 13a], in assay [1], the viability at 10 µg/mL is 51.3% and the Percent apoptotic eosinophils (annexin V-positive) at 10 µg/mL came out at 44%.

For `CCCCCCCC(=O)N(C)[C@@H](CC(C)C)C(=O)N[C@H](C(=O)N(C)[C@@H](CCSC)C(=O)N1C[C@@H](O)C[C@H]1C(=O)N1C(=O)C=CC1=O)C(C)OC(C)=O` (some centres unmarked) [Compound 19a], in assay [1], the viability at 10 µg/mL was found to be 52.7% and the Percent apoptotic eosinophils (annexin V-positive) at 10 µg/mL was determined as 41.8%.

As for `CCCC[C@@H](C)C[C@@H](C)C(=O)N(C)[C@@H](CC(C)C)C(=O)N[C@H](C(=O)N(C)[C@H](C(=O)N1CCC[C@H]1C(=O)N1C(=O)C=C[C@@H]1C)C(C)C)C(C)OC(C)=O` (some centres unmarked) [Compound 3a], in assay [1], the viability at 10 µg/mL was found to be 51.6% and the Percent apoptotic eosinophils (annexin V-positive) at 10 µg/mL came out at 43.7%. Also, the activity at 1 µg/mL in the assay with CD11b on PMNL surface is 139%.

On to `CCCC[C@@H](C)C[C@@H](C)C(=O)N(C)[C@@H](CC(C)C)C(=O)N[C@H](C(=O)N(C)[C@H](C(=O)N1C[C@@H](O)C[C@H]1C(=O)N1C(=O)C=C[C@@H]1C)C(C)C)C(C)OC(C)=O` (some centres unmarked) [Compound 1a], for which, in assay [1], the viability at 10 µg/mL was 42.5% and the Percent apoptotic eosinophils (annexin V-positive) at 10 µg/mL was 53.2%. Further, the activity at 1 µg/mL with CD11b on PMNL surface came to 129%.

For the compound `CCCCCCCC(=O)N(C)[C@@H](CC(C)C)C(=O)N[C@H](C(=O)N(C)[C@H](C(=O)N1C[C@@H](O)C[C@H]1C(=O)N1C(=O)C=C[C@@H]1C)C(C)C)C(C)OC(C)=O` (some centres unmarked) [Compound 5a], in assay [1], the viability at 10 µg/mL was 42.9% and the Percent apoptotic eosinophils (annexin V-positive) at 10 µg/mL is 53.1%. Moreover, in the assay on CD11b on PMNL surface, the activity at 1 µg/mL is 129%.

Regarding `CC/C=C\C/C=C\C/C=C\C/C=C\C/C=C\CCCC(=O)N(C)[C@@H](CC(C)C)C(=O)N[C@H](C(=O)N(C)[C@H](C(=O)N1C[C@@H](O)C[C@H]1C(=O)N1C(=O)C=C[C@@H]1C)C(C)C)C(C)O` (some centres unmarked) [Compound 14a], in assay [1], the viability at 10 µg/mL worked out at 26.6% and the Percent apoptotic eosinophils (annexin V-positive) at 10 µg/mL came out at 67.1%.

On to `CCCCC(C)CC(C)C(=O)N(C)[C@@H](CC(C)C)C(=O)N[C@@H](COC(C)=O)C(=O)N(C)[C@H](C(=O)N1C[C@@H](O)C[C@H]1C(=O)N1C(=O)C=C[C@@H]1C)C(C)C` (some centres unmarked) [Compound 9a], for which, in assay [1], the viability at 10 µg/mL amounted to 39.6% and the Percent apoptotic eosinophils (annexin V-positive) at 10 µg/mL was 56.4%. Also, in the assay on CD11b on PMNL surface, the activity at 1 µg/mL was 127%.

As for `CC/C=C\C/C=C\C/C=C\C/C=C\C/C=C\CCCC(=O)N(C)[C@@H](Cc1ccccc1)C(=O)N[C@H](C(=O)N(C)[C@H](C(=O)N1CCC[C@H]1C(=O)N1C(=O)C=CC1=O)C(C)C)C(C)O` (some centres unmarked) [Compound 25a], in assay [1], the viability at 10 µg/mL turned out to be 22.3% and the Percent apoptotic eosinophils (annexin V-positive) at 10 µg/mL is 73.1%.

Take `CC/C=C\C/C=C\C/C=C\C/C=C\C/C=C\CCCC(=O)N(C)[C@@H](Cc1ccccc1)C(=O)N[C@H](C(=O)N(C)[C@H](C(=O)N1CCC[C@H]1C(=O)N1C(=O)C=CC1=O)C(C)C)C(C)OC(C)=O` (some centres unmarked) [Compound 24a]: in assay [1], the viability at 10 µg/mL amounted to 33.8% and the Percent apoptotic eosinophils (annexin V-positive) at 10 µg/mL turned out to be 64.9%.

`CC/C=C\C/C=C\C/C=C\C/C=C\C/C=C\CCCC(=O)N(C)[C@@H](CC(C)C)C(=O)N[C@H](C(=O)N(C)[C@H](C(=O)N1C[C@@H](O)C[C@H]1C(=O)N1C(=O)C=CC1=O)C(C)C)C(C)O` (some centres unmarked) [Compound 22a]: in assay [1], the viability at 10 µg/mL was determined as 28.1% and the Percent apoptotic eosinophils (annexin V-positive) at 10 µg/mL was 68.7%.

As to `CC/C=C\C/C=C\C/C=C\C/C=C\C/C=C\CCCCCC(=O)N(C)[C@@H](Cc1ccccc1)C(=O)N[C@H](C(=O)N(C)[C@H](C(=O)N1CCC[C@H]1C(=O)N1C(=O)C=CC1=O)C(C)C)C(C)O` (some centres unmarked) [Compound 26a], in assay [1], the viability at 10 µg/mL came to 30% and the Percent apoptotic eosinophils (annexin V-positive) at 10 µg/mL came out at 67.3%.

As for `CCCCC(C)CC(C)C(=O)N[C@@H](CC(C)C)C(=O)N[C@H](C(=O)N[C@H](C(=O)N1C[C@@H](O)C[C@H]1C(=O)N1C(=O)C=C[C@@H]1C)C(C)C)C(C)OC(C)=O` (some centres unmarked) [Compound 6a], in assay [1], the viability at 10 µg/mL is 54.5% and the Percent apoptotic eosinophils (annexin V-positive) at 10 µg/mL was found to be 42.8%. Also, the activity at 1 µg/mL in the assay with CD11b on PMNL surface was found to be 141%.

Take `CC/C=C\C/C=C\C/C=C\C/C=C\C/C=C\CCCC(=O)N(C)[C@@H](CC(C)C)C(=O)N[C@H](C(=O)N(C)[C@H](C(=O)N1C[C@@H](O)C[C@H]1C(=O)N1C(=O)C=CC1=O)C(C)C)C(C)OC(C)=O` (some centres unmarked) [Compound 21a]: in assay [1], the viability at 10 µg/mL stood at 38.2% and the Percent apoptotic eosinophils (annexin V-positive) at 10 µg/mL amounted to 58%.
